{"source": "patent US9163021B2", "about": "“Pyrrolo[3,2-c]pyridine tropomyosin-related kinase inhibitors” (Pfizer Limited, priority 2012, dated 2015)"}
{"target": "TRKA (Homo sapiens (Human), UniProt P04629)", "sequence (P04629 441-796)": "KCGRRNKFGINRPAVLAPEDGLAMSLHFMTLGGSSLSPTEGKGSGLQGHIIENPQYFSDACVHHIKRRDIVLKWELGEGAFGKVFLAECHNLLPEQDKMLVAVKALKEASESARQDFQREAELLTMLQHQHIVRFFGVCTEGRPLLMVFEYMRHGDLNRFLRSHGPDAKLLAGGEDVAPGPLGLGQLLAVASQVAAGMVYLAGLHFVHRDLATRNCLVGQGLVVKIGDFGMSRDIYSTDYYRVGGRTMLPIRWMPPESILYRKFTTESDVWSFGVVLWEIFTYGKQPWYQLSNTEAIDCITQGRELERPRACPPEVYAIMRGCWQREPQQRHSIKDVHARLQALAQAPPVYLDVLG", "test": "Isolated TRK enzyme assay (HTRF KinEASE-TK), PV3144 TrkA enzyme assay", "type": "biochemical", "settings": "arithmetic mean where more than one reading", "outline": "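Kinase (recombinant His-TrkA cytoplasmic domain, ATP-preactivated 20 min) met compound 20 min, then biotinylated TK substrate (1 µM final) with Mg2+/DTT buffer; HTRF detection.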", "units": {"IC50": "nM"}}
{"smiles": "CC(C)c1ccnn1CC(=O)Nc1cc(C(=O)c2cn(CCO)c3ccncc23)ccn1", "note": "[Example 147, N-(4-{[1-(2-hydroxyethyl)-1H-pyrrolo[3,2-c]pyridin-3-yl]carbonyl}pyridin-2-yl)-2-[5-(propan-2-yl)-1H-pyrazol-1-yl]acetamide]", "IC50": 4310}
{"smiles": "O=C(Cc1ccc(F)cc1)Nc1cc(C(=O)c2cn(CCO)c3ccncc23)ccn1", "note": "[Example 148, 2-(4-fluorophenyl)-N-(4-{[1-(2-hydroxyethyl)-1H-pyrrolo[3,2-c]pyridin-3-yl]carbonyl}pyridin-2-yl)acetamide]", "IC50": 424}
{"smiles": "O=C(Cc1cccc(Cl)c1)Nc1cc(C(=O)c2cn(CCO)c3ccncc23)ccn1", "note": "[Example 149, 2-(3-chlorophenyl)-N-(4-{[1-(2-hydroxyethyl)-1H-pyrrolo[3,2-c]pyridin-3-yl]carbonyl}pyridin-2-yl)acetamide]", "IC50": 200}
{"smiles": "Cc1ccn(CC(=O)Nc2cc(C(=O)c3cn(CCO)c4ccncc34)ccn2)n1", "note": "[Example 150, N-(4-{[1-(2-hydroxyethyl)-1H-pyrrolo[3,2-c]pyridin-3-yl]carbonyl}pyridin-2-yl)-2-(3-methyl-1H-pyrazol-1-yl)acetamide]", "IC50": 3080}
{"smiles": "CC(C)(O)Cc1cccc(CC(=O)Nc2cc(C(=O)c3cn(CCO)c4ccncc34)ccn2)c1", "note": "[Example 151, N-(4-{[1-(2-hydroxyethyl)-1H-pyrrolo[3,2-c]pyridin-3-yl]carbonyl}pyridin-2-yl)-2-[3-(2-hydroxy-2-methylpropyl)phenyl]acetamide]", "IC50": 408}
{"smiles": "Cc1cc(C)n(CC(=O)Nc2cc(C(=O)c3cn(CCO)c4ccncc34)ccn2)n1", "note": "[Example 152, 2-(3,5-dimethyl-1H-pyrazol-1-yl)-N-(4-{[1-(2-hydroxyethyl)-1H-pyrrolo[3,2-c]pyridin-3-yl]carbonyl}pyridin-2-yl)acetamide]", "IC50": 2150}
{"smiles": "Cc1cc(C(F)(F)F)nn1CC(=O)Nc1cc(C(=O)c2cn(CCO)c3ccncc23)ccn1", "note": "[Example 153, N-(4-{[1-(2-hydroxyethyl)-1H-pyrrolo[3,2-c]pyridin-3-yl]carbonyl}pyridin-2-yl)-2-[5-methyl-3-(trifluoromethyl)-1H-pyrazol-1-yl]acetamide]", "IC50": 83.9}
{"smiles": "Cn1nc(C(C)(C)C)nc1CC(=O)Nc1cc(C(=O)c2cn(CCO)c3ccncc23)ccn1", "note": "[Example 154, 2-(3-tert-butyl-1-methyl-1H-1,2,4-triazol-5-yl)-N-(4-{[1-(2-hydroxyethyl)-1H-pyrrolo[3,2-c]pyridin-3-yl]carbonyl}pyridin-2-yl)acetamide]", "IC50": 1100}
{"smiles": "Cc1ccnn1CC(=O)Nc1cc(C(=O)c2cn(CCO)c3ccncc23)ccn1", "note": "[Example 155, N-(4-{[1-(2-hydroxyethyl)-1H-pyrrolo[3,2-c]pyridin-3-yl]carbonyl}pyridin-2-yl)-2-(5-methyl-1H-pyrazol-1-yl)acetamide]", "IC50": 2390}
{"smiles": "O=C(Cn1cc(C(F)(F)F)nn1)Nc1cc(C(=O)c2cn(CCO)c3ccncc23)ccn1", "note": "[Example 156, N-(4-{[1-(2-hydroxyethyl)-1H-pyrrolo[3,2-c]pyridin-3-yl]carbonyl}pyridin-2-yl)-2-[4-(trifluoromethyl)-1H-1,2,3-triazol-1-yl]acetamide]", "IC50": 342}
{"smiles": "CC(C)n1ncc(CC(=O)Nc2cc(C(=O)c3cn(CCO)c4ccncc34)ccn2)c1C(F)(F)F", "note": "[Example 157, N-(4-{[1-(2-hydroxyethyl)-1H-pyrrolo[3,2-c]pyridin-3-yl]carbonyl}pyridin-2-yl)-2-[1-(propan-2-yl)-5-(trifluoromethyl)-1H-pyrazol-4-yl]acetamide]", "IC50": 420}
{"smiles": "O=C(Cn1nccn1)Nc1cc(C(=O)c2cn(CCO)c3ccncc23)ccn1", "note": "[Example 158, N-(4-{[1-(2-hydroxyethyl)-1H-pyrrolo[3,2-c]pyridin-3-yl]carbonyl}pyridin-2-yl)-2-(2H-1,2,3-triazol-2-yl)acetamide]", "IC50": 9800}
{"smiles": "CC(C)c1cn(CC(=O)Nc2cc(C(=O)c3cn(CCO)c4ccncc34)ccn2)nn1", "note": "[Example 159, N-(4-{[1-(2-hydroxyethyl)-1H-pyrrolo[3,2-c]pyridin-3-yl]carbonyl}pyridin-2-yl)-2-[4-(propan-2-yl)-1H-1,2,3-triazol-1-yl]acetamide]", "IC50": 271}
{"smiles": "Cc1noc(C)c1CC(=O)Nc1cc(C(=O)c2cn(C(C)C)c3ccncc23)ccn1", "note": "[Example 160, 2-(3,5-dimethyl-1,2-oxazol-4-yl)-N-(4-{[1-(propan-2-yl)-1H-pyrrolo[3,2-c]pyridin-3-yl]carbonyl}pyridin-2-yl)acetamide]", "IC50": 8990}
{"smiles": "Cc1nc(CC(=O)Nc2cc(C(=O)c3cn(C(C)C)c4ccncc34)ccn2)cs1", "note": "[Example 161, 2-(2-methyl-1,3-thiazol-4-yl)-N-(4-{[1-(propan-2-yl)-1H-pyrrolo[3,2-c]pyridin-3-yl]carbonyl}pyridin-2-yl)acetamide]", "IC50": 103}
{"smiles": "Cc1nc(CC(=O)Nc2cc(C(=O)c3cn(C(C)C)c4ccncc34)ccn2)c(C)s1", "note": "[Example 162, 2-(2,5-dimethyl-1,3-thiazol-4-yl)-N-(4-{[1-(propan-2-yl)-1H-pyrrolo[3,2-c]pyridin-3-yl]carbonyl}pyridin-2-yl)acetamide]", "IC50": 56}
{"smiles": "CC(C)n1cc(C(=O)c2ccnc(NC(=O)Cn3cc(C(F)(F)F)nn3)c2)c2cnccc21", "note": "[Example 163, N-(4-{[1-(propan-2-yl)-1H-pyrrolo[3,2-c]pyridin-3-yl]carbonyl}pyridin-2-yl)-2-[4-(trifluoromethyl)-1H-1,2,3-triazol-1-yl]acetamide]", "IC50": 10.7}
{"smiles": "Cc1cc(C)n(CC(=O)Nc2cc(C(=O)c3cn(C(C)C)c4ccncc34)ccn2)n1", "note": "[Example 164, 2-(3,5-dimethyl-1H-pyrazol-1-yl)-N-(4-{[1-(propan-2-yl)-1H-pyrrolo[3,2-c]pyridin-3-yl]carbonyl}pyridin-2-yl)acetamide]", "IC50": 33}
{"smiles": "CC(C)n1cc(C(=O)c2ccnc(NC(=O)Cc3ccc(Cl)c(Cl)c3)c2)c2cnccc21", "note": "[Example 165, 2-(3,4-dichlorophenyl)-N-(4-{[1-(propan-2-yl)-1H-pyrrolo[3,2-c]pyridin-3-yl]carbonyl}pyridin-2-yl)acetamide]", "IC50": 5.68}
{"smiles": "CC(C)n1cc(C(=O)c2ccnc(NC(=O)Cn3cccn3)c2)c2cnccc21", "note": "[Example 166, N-(4-{[1-(propan-2-yl)-1H-pyrrolo[3,2-c]pyridin-3-yl]carbonyl}pyridin-2-yl)-2-(1H-pyrazol-1-yl)acetamide]", "IC50": 955}
{"smiles": "Cc1nc(C)c(CC(=O)Nc2cc(C(=O)c3cn(C(C)C)c4ccncc34)ccn2)s1", "note": "[Example 167, 2-(2,4-dimethyl-1,3-thiazol-5-yl)-N-(4-{[1-(propan-2-yl)-1H-pyrrolo[3,2-c]pyridin-3-yl]carbonyl}pyridin-2-yl)acetamide]", "IC50": 181}
{"smiles": "Cc1ccnn1CC(=O)Nc1cc(C(=O)c2cn(C(C)C)c3ccncc23)ccn1", "note": "[Example 169, 2-(5-methyl-1H-pyrazol-1-yl)-N-(4-{[1-(propan-2-yl)-1H-pyrrolo[3,2-c]pyridin-3-yl]carbonyl}pyridin-2-yl)acetamide]", "IC50": 83.6}
{"smiles": "CC(C)n1cc(C(=O)c2ccnc(NC(=O)Cn3cnnn3)c2)c2cnccc21", "note": "[Example 170, N-(4-{[1-(propan-2-yl)-1H-pyrrolo[3,2-c]pyridin-3-yl]carbonyl}pyridin-2-yl)-2(1H-tetrazol-1-yl)acetamide]", "IC50": 6510}
{"smiles": "CC(C)n1cc(C(=O)c2ccnc(NC(=O)Cc3nc(C(C)(C)C)nn3C)c2)c2cnccc21", "note": "[Example 171, 2(3-tert-butyl-1-methyl-1H-1,2,4-triazol-5-yl)-N-(4-{[1-(propan-2-yl)-1H-pyrrolo[3,2-c]pyridin-3-yl]carbonyl}pyridin-2-yl)acetamide]", "IC50": 36.1}
{"smiles": "CC(C)n1cc(C(=O)c2ccnc(NC(=O)Cc3ccc(C(F)(F)F)c(F)c3)c2)c2cnccc21", "note": "[Example 172, 2-(3-fluoro-4-(trifluoromethyl)phenyl]-N-(4-{[1-(propan-2-yl)-1H-pyrrolo[3,2-c]pyridin-3-yl]carbonyl}-pyridin-2-yl)acetamide]", "IC50": 8.49}
{"smiles": "CC(C)n1cc(C(=O)c2ccnc(NC(=O)c3cccc(OC(F)(F)F)c3)c2)c2cnccc21", "note": "[Example 173, N-(4-{[1-(propan-2-yl)-1H-pyrrolo[3,2-c]pyridin-3-yl]carbonyl}pyridin-2-yl)-3-(trifluoromethoxy)-benzamide]", "IC50": 3.85}
{"smiles": "Cc1nc(CC(=O)Nc2cc(C(=O)c3cn(C(C)C)c4ccncc34)ccn2)c(C2CC2)o1", "note": "[Example 174, 2(5-cyclopropyl-2-methyl-1,3-oxazol-4-yl)-N-(4-{[1-(propan-2-yl)-1H-pyrrolo[3,2-c]pyridin-3-yl]carbonyl}pyridin-2-yl)acetamide]", "IC50": 51.4}
{"smiles": "CC(C)n1cc(C(=O)c2ccnc(NC(=O)Cc3ccc(C(F)(F)F)cc3)c2)c2cnccc21", "note": "[Example 175, N-(4-{[1-(propan-2-yl)-1H-pyrrolo[3,2-c]pyridin-3-yl]carbonyl}pyridin-2-yl)-2-[4-(trifluoromethyl)phenyl]acetamide]", "IC50": 5.3}
{"smiles": "COCc1cn(CC(=O)Nc2cc(C(=O)c3cn(C(C)C)c4ccncc34)ccn2)nn1", "note": "[Example 176]", "IC50": 904}
{"smiles": "Cc1cc(CC(=O)Nc2cc(C(=O)c3cn(C(C)C)c4ccncc34)ccn2)[nH]n1", "note": "[Example 177, 2(3-methyl-1H-pyrazol-5-yl)-N-(4-{[1-(propan-2-yl)-1H-pyrrolo[3,2-c]pyridin-3-yl]carbonyl}pyridin-2-yl)acetamide]", "IC50": 102}
{"smiles": "CC(C)n1ncc(CC(=O)Nc2cc(C(=O)c3cn(C(C)C)c4ccncc34)ccn2)c1C(F)(F)F", "note": "[Example 178, N-(4-{[1-(propan-2-yl)-1H-pyrrolo[3,2-c]pyridin-3-yl]carbonyl}pyridin-2-yl)-2-[1-(propan-2-yl)-5-(trifluoromethyl)-1H-pyrazol-4-yl]acetamide]", "IC50": 22}
{"smiles": "Cc1nc(CC(=O)Nc2cc(C(=O)c3cn(C(C)C)c4ccncc34)ccn2)c(C)o1", "note": "[Example 179, 2-(2,5-dimethyl-1,3-oxazol-4-yl)-N-(4-{[1-(propan-2-yl)-1H-pyrrolo[3,2-c]pyridin-3-yl]carbonyl}pyridin-2-yl)acetamide]", "IC50": 163}
{"smiles": "CC(C)n1cc(C(=O)c2ccnc(NC(=O)Cc3ccon3)c2)c2cnccc21", "note": "[Example 180, 2-(1,2-oxazol-3-yl)-N-(4-{[1-(propan-2-yl)-1H-pyrrolo[3,2-c]pyridin-3-yl]carbonyl}pyridin-2-yl)acetamide]", "IC50": 1080}
